# From the METLIN SMRT retention time set (Domingo-Almenara et al. 2019)
# Assay: gradient 5% acetonitrile 3 min, to 50% in 2 min, to 85% in 15 min, held 3 min, 100 µL/min
# Settings: column: Zorbax Extend-C18 2.1 x 50 mm; eluents: water / acetonitrile, 0.1% formic acid
# Method in brief: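 Using water and acetonitrile that each contained 0.1% formic acid, mixtures of ~100 pure standards were separated at 100 μL/min on a Zorbax Extend-C18 column (2.1 × 50 mm, 1.8 μm). The HPLC fed a quadrupole time-of-flight mass spectrometer working in positive and negative ionization mode, with dead and dwell volumes of 40 μL and 900 μL. Data were acquired over 3 months. Retention time was read from computationally picked adduct peaks after manual inspection of each.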
structure (smiles),measurement,value
O=C(c1nnc(-c2ccc(S(=O)(=O)N3CCCCC3)cc2)o1)N1CCC2(CC1)OCCO2,RP-LC retention time,884 s
Cc1cc(C)n2c(Nc3ccc(C(C)C)cc3)c(-c3ccccc3)nc2n1,RP-LC retention time,828 s
CCOc1cccc(CNC(=O)CCc2nnc3c4cc(-c5ccccc5)nn4ccn23)c1,RP-LC retention time,766 s
Cc1nn(-c2ccc(Cl)cc2)c(C)c1S(=O)(=O)Nc1ccc(S(N)(=O)=O)cc1,RP-LC retention time,812 s
Cc1ccc(NC(=O)Cn2c(C(C)C)nc3c(c2=O)CCN(Cc2ccccc2)C3)c(C)c1,RP-LC retention time,705 s
O=C(NCCc1nc2cccnc2n1C1CCCC1)NCc1ccco1,RP-LC retention time,652 s
O=C(c1c(F)cccc1Cl)N1CCN(S(=O)(=O)c2cc3c4c(c2)CCC(=O)N4CCC3)CC1,RP-LC retention time,828 s
COC(=O)c1ccc2c(=O)n(CCc3ccccc3)c(N3CCOCC3)nc2c1,RP-LC retention time,995 s
O=C(Cn1c(=O)c2cc(C3CC3)nn2c2ncccc21)Nc1cc(F)cc(F)c1,RP-LC retention time,815 s
Cc1ccc(Cn2nnc(-c3noc(C)n3)c2C)cc1,RP-LC retention time,860 s
Cc1nc(-c2ccccc2)nn1C1CCN(S(=O)(=O)c2ccc(Cl)s2)C1 (centres undefined),RP-LC retention time,902 s
CCc1ccc2c(c1)cc(S(=O)(=O)c1ccccc1)c(=O)n2CC(=O)NC(C)C,RP-LC retention time,882 s
Cc1ccc(NC(=O)c2c(C)sc3ncnc(N4CCCC(C)C4)c23)cc1 (centres undefined),RP-LC retention time,1220 s
COc1ccc(NC(=O)Nc2cnc3c(c2)CCC3)cc1,RP-LC retention time,516 s
Cc1onc(-c2cccnc2)c1C(=O)Nc1ccc(Br)cc1F,RP-LC retention time,798 s
Cc1ccc(-c2ncccc2CNS(=O)(=O)Cc2cccc(Cl)c2)cc1,RP-LC retention time,741 s
COc1ccc(S(=O)(=O)N2CCc3nc(-c4ccc(F)cc4)ncc3C2)cc1,RP-LC retention time,1050 s
CCNc1nn2ccccc2c1/C=C(/C#N)C(=O)OCC,RP-LC retention time,936 s
CCNC(=O)C(=O)NCC(c1ccc2c(c1)CCCN2C)N1CCCCC1 (centres undefined),RP-LC retention time,649 s
Cc1ccc(C(=O)N2CCC(CC(=O)NCCc3c[nH]c4ccc(Cl)cc34)CC2)cc1,RP-LC retention time,828 s
O=C(Cn1cnc2c(-c3ccc(F)cc3)csc2c1=O)N1CCCC1,RP-LC retention time,783 s
CCC(C)NC(=O)NCCn1c(-c2ccc(C)cc2)nc2cccnc21 (centres undefined),RP-LC retention time,650 s
O=C(c1ccc2c(c1)OCO2)N1CCN(c2cc(-c3ccc(F)cc3)[nH]n2)CC1,RP-LC retention time,772 s
CCc1ccc(C2=C(C)C(N3CCC(C(=O)NCc4ccc(C)o4)CC3)=NS2(=O)=O)cc1,RP-LC retention time,944 s
O=C(Nc1ccc(F)cc1)N1CCCC1c1nc(-c2cccc(F)c2)no1 (centres undefined),RP-LC retention time,965 s
COc1ccc(OC)c(NC(=O)Cn2cccc(-c3nc(-c4ccc(Cl)cc4)no3)c2=O)c1,RP-LC retention time,1000 s
CCC(=O)N(C1CCOCC1)C1CCN(Cc2ccc(C)cc2C)CC1,RP-LC retention time,636 s
O=C(c1cccc(Br)c1)N1CCc2nc(-c3ccc(Cl)cc3)ncc2C1,RP-LC retention time,1160 s
Cc1nnc(NC(=O)C2CCN(C(=O)NC3CC3)CC2)s1,RP-LC retention time,582 s
COc1ccc(NS(=O)(=O)c2cccc(-c3nc(-c4ccccc4)no3)c2)cc1OC,RP-LC retention time,1060 s
COc1ccc(CN2C[C@@H]3C(=O)N(Cc4ccc5c(c4)OCO5)C(=O)[C@@H]3C2)c(OC)c1,RP-LC retention time,691 s
CCC1Oc2ccc(S(=O)(=O)N3CCC(C(=O)N(C)Cc4ccco4)CC3)cc2NC1=O (centres undefined),RP-LC retention time,800 s
O=C(CSc1nccnc1Sc1ccccc1)N1CCN(c2ccccn2)CC1,RP-LC retention time,688 s
CN(CC1CCOCC1)S(=O)(=O)c1ccccc1F,RP-LC retention time,804 s
Nc1nnc(C2CC(=O)N(c3ccccc3)C2)o1 (centres undefined),RP-LC retention time,570 s
Cc1cc(Br)ccc1NC(=O)Cn1cnc(C)c(C)c1=O,RP-LC retention time,673 s
Cc1cc(OCC(=O)NCc2ccc(Cl)cc2)nc(N2CCCC2)n1,RP-LC retention time,645 s
COc1ccc(CCO[C@@H]2CCCC[C@H]2N2CC[C@@H](O)C2)cc1OC,RP-LC retention time,684 s
COc1ccc(C)cc1NC(=O)NC1CCN(c2ccc(F)cc2)C1=O (centres undefined),RP-LC retention time,855 s
O=C(c1ccccc1F)N1CCC2(CC1)N=C(c1ccc(Cl)cc1)NO2,RP-LC retention time,876 s
O=S(=O)(c1ccc(-c2noc(COc3ccc(Cl)cc3)n2)cc1)N1CCCC1,RP-LC retention time,1170 s
CCc1ccc(-c2noc(Cn3c(=O)n(-c4ccccc4F)c(=O)c4sccc43)n2)cc1,RP-LC retention time,1100 s
CN(C)CCNC(=O)C1CCN(c2ccc3nnc(-c4ccccc4Cl)n3n2)CC1,RP-LC retention time,589 s
CCCNC(=O)N1CCCCC1c1nc(C2CC2)n[nH]1 (centres undefined),RP-LC retention time,610 s
COc1ccc(-c2nc(Cn3ccn4nc(-c5ccc(F)cc5)cc4c3=O)c(C)o2)cc1,RP-LC retention time,670 s
CCN(CC)S(=O)(=O)c1ccc(Cl)c(C(=O)NCc2ccccn2)c1,RP-LC retention time,676 s
Cc1cccc(-c2csc3c(=O)n(Cc4ccc(N5CCCC5=O)cc4)cnc23)c1,RP-LC retention time,937 s
Cc1nc(CC(=O)Nc2nc(-c3ccc(-c4ccccc4)cc3)cs2)cs1,RP-LC retention time,1160 s
COc1ccccc1-c1cc2nc(C)cc(N3CCN(c4ccccn4)CC3)n2n1,RP-LC retention time,580 s
c1ccc(N2CCN(c3ccc4nncn4n3)CC2)nc1,RP-LC retention time,537 s
CCn1ncc(Cl)c1C(=O)N1CCCC1c1ccccc1F (centres undefined),RP-LC retention time,922 s
Cc1nc(-c2cc(S(=O)(=O)NCc3ccc(Br)cc3)c(C)s2)cs1,RP-LC retention time,1030 s
Cc1oc(-c2[nH]ncc2C(=O)N(C)C)cc1S(=O)(=O)Nc1ccccc1,RP-LC retention time,609 s
Cc1cccn2cc(C(=O)NCc3cccc(Cl)c3)nc12,RP-LC retention time,777 s
CCc1noc(-c2cc(=O)n(CC(=O)Nc3ccccc3Cl)c3ccccc23)n1,RP-LC retention time,987 s
CN(C)c1ccc(N2C=C(C(=O)N3CCCCC3)S(=O)(=O)c3ccc(F)cc32)cc1,RP-LC retention time,959 s
CCOC(=O)N1CCc2c(sc(NC(=O)c3cn(C)nc3OC)c2C#N)C1,RP-LC retention time,776 s
COc1ccc(Cl)cc1NC(=O)c1cc(C)n2nccc2n1,RP-LC retention time,942 s
CC(=O)Nc1onc(C)c1-c1ccc(C)c(S(=O)(=O)Nc2ccc(F)cc2C)c1,RP-LC retention time,806 s
CN(C)C[C@@H]1CN(c2ncccn2)C[C@H]1NS(=O)(=O)c1cccc(C#N)c1,RP-LC retention time,601 s
CCOc1ccc(-c2noc(N3CCC(C(=O)N4CCN(CC)CC4)CC3)n2)cc1OC,RP-LC retention time,630 s
COC(=O)c1ncn2c1C(=O)N(Cc1cccc(Cl)c1)C(C)(C(=O)NCc1ccccc1)C2 (centres undefined),RP-LC retention time,755 s
Cc1noc2ncn(CC(=O)Nc3ccccc3F)c(=O)c12,RP-LC retention time,732 s
COc1ccccc1NC(=O)C1CCc2nc(N3CCCCC3)ncc2C1 (centres undefined),RP-LC retention time,811 s
CN1c2cc(C(=O)Nc3ccc(OC(F)(F)F)cc3)ccc2C(=O)N2CCCCC21 (centres undefined),RP-LC retention time,1010 s
COCc1nc(-c2ccc(OC3CCN(C(=O)C4(c5ccccc5)CC4)C3)cc2)no1 (centres undefined),RP-LC retention time,932 s
COc1ccc(CNC(=O)N2CC=C(c3cn(C(C)C)c4ncccc34)CC2)cc1,RP-LC retention time,678 s
c1cnn(-c2cc(N3CCSCC3)ncn2)c1,RP-LC retention time,833 s
COc1ccc(NC(=O)NC(C)C(=O)N2CCc3ccccc32)cc1OC (centres undefined),RP-LC retention time,742 s
Cc1ccn2cc(-c3ccc(C)c(NS(=O)(=O)c4ccc(Cl)cc4)c3)nc2c1,RP-LC retention time,698 s
CN1CCCc2cc(C(=O)NC3CCCCC3)sc21,RP-LC retention time,934 s
CCN1CCN(CCNC(=O)C2CCCN(c3nnc(C)c4c(C)n(-c5ccccc5)nc34)C2)CC1 (centres undefined),RP-LC retention time,570 s
CCc1cccc(C)c1NC(=O)C1CCN(S(C)(=O)=O)c2ccccc2O1 (centres undefined),RP-LC retention time,880 s
Cc1ccc(CN2N=C(C(=O)N3CCOCC3)S(=O)(=O)c3ccc(Cl)cc32)cc1,RP-LC retention time,896 s
CNC(=O)C1CCCN(c2nc3ncn(CC(=O)Nc4ccc(F)c(Cl)c4)c(=O)c3s2)C1 (centres undefined),RP-LC retention time,693 s
CCOC(=O)c1[nH]c(C)c(CCC(=O)N2CCC(C(=O)N3CCCC3)CC2)c1C,RP-LC retention time,687 s
CCc1cccc(C)c1Nc1c(-c2ccc(OC)cc2)nc2nc(C)cc(C)n12,RP-LC retention time,781 s
O=C(CCc1conc1-c1ccc(F)cc1)NCc1ccc2c(c1)OCO2,RP-LC retention time,848 s
Cc1cc(C(=O)Nc2nnc(CCSc3ccccc3)o2)on1,RP-LC retention time,694 s
CC(=O)OC1CCN(C(=O)c2ccc(C#N)cc2)CC1,RP-LC retention time,698 s
CC1CCCN(c2nn(CC(=O)Nc3cccc(C(C)C)c3)c(=O)c3ccccc23)C1 (centres undefined),RP-LC retention time,1300 s
CCc1c(C(=O)O)nnn1-c1ccc(C)c(C)c1,RP-LC retention time,783 s
CC(NC(=O)CCCN1C(=O)CCn2nc(-c3cn(C)c4ccccc34)cc21)c1ccccc1 (centres undefined),RP-LC retention time,791 s
CCc1ccccc1S(=O)(=O)N1CCC(c2cc(N)on2)CC1,RP-LC retention time,824 s
CCNC(=O)CN1C(=O)C2CCCCN2c2ccc(S(=O)(=O)N(CC)CC)cc21 (centres undefined),RP-LC retention time,804 s
CCN1c2ccc(F)cc2C(=O)NC12CCN(C(=O)Cc1ccccc1Cl)CC2,RP-LC retention time,863 s
COc1ccc(NC(=O)C2CCCN(S(=O)(=O)c3c[nH]c(C(=O)N4CCCC4)c3)C2)cc1 (centres undefined),RP-LC retention time,732 s
Cc1cc(NC(=O)CSc2ccc3nnc(-c4cccs4)n3n2)no1,RP-LC retention time,620 s
COc1cc2c(cc1OC)C(C(=O)N1CCC(C(N)=O)CC1)C(c1cccs1)N(C)C2=O (centres undefined),RP-LC retention time,596 s
